Reference: US10202326B2, “Polyprenylated phloroglucinol compounds as potent P-glycoprotein inducers” (COUNCIL OF SCIENTIFIC & INDUSTRIAL RESEARCH, priority 2014, dated 2019)
Read-outs that look alike come from different tables or passages of the source.

Columns and labels:
[1] = tested on: P-glycoprotein (Pgp); assay: Pgp-induction assay, rhodamine123 (Rh123) cell exclusion method in LS180 cells; assay type: cell-based; conditions: for EC50: 48 h treatment, Rh123 fluorescence; for Pgp induction activity compared to parent natural product: 1b, 1g versus garcinol (1a), 2b versus isogarcinol (2a)
Procedure: All synthesized compounds were screened for their ability to induce Pgp by using rhodamine123 (Rh123) cell exclusion method. In this method, the Pgp function was evaluated in terms of rhodamine 123 (Rh123) accumulations and efflux. Briefly, the protocol used is as follows: Colorectal LS180 cells Colorectal LS-180 cells [obtained from ECACC (European Collection of Cell Cultures) catalogue number: 87021202; passage number 52] were seeded at a density of 2×10^4 per well of 96 well plate and were allowed to grow for next 24 h. Cells were further incubated with the test compounds, and were diluted to a final concentration of 100 nM and rifampicin (standard) to a final concentration of 10 μM in complete media for 48 h. The final concentration of DMSO was kept at 0.1%. Drugs were removed and cells were incubated with HANKS buffer for 40 minutes before further incubation with HANKS buffer (containing 10 μM of Rh123 as a Pgp substrate) for 90 minutes. At the end of Rh123 treatment cells were washed four times with cold PBS followed by cell lysis for 1 h by using 200 μl of lysis buffer (0.1% Triton X-100 and 0.2 N NaOH). A total of 100 μl of lysate was used for reading fluorescence of Rh123 at 485 nm/529 nm. Samples were normalized by dividing fluorescence of each sample with total protein present in the lysate. […] For EC50 determination, different concentrations of compound were used to treat LS180 cells for 48 h. EC50 was determined by plotting fluorescence of Rh123 against concentration of compound.

[2] = in vitro; conditions: human
Procedure: (§1) Compounds proposed in present invention were evaluated for their cytotoxic effect in LS-180 cells using MTT assay. In each well of a 96-well plate, 3×10^3 cells were grown in 100 μL of medium. After 24 h, each test molecules were added to achieve a final concentration of 10 to 0.01 μmol/L, respectively. After 48 h of treatment, 20 μL of 2.5 mg/mL MTT solution in phosphate buffer saline was added to each well. After 48 h, supernatant was removed and formazan crystals were dissolved in 200 μL of DMSO. Absorbance was then measured at 570 nm using an absorbance plate reader. Data are expressed as the percentage of viable cells in treated relative to non-treated conditions.

[3] = Cytotoxicity in LS-180 cells using MTT assay; conditions: human
Procedure: as §1

[4] = LS-180 cells, read-out: Pgp induction EC50
[5] = LS180 cells, values in text, read-out: EC50 for p-glycoprotein induction activity

SMILES	EC50 [1, 4] [nM]	IC50 at 48 h [2] [µM]	EC50 [1, 5] [nM]	Pgp induction activity compared to parent natural product ([1]; LS180 cells)	IC50 at 48 h [3] [µM]
C=C(C)[C@@H](CC=C(C)C)C[C@@]12C[C@@H](CC=C(C)C)C(C)(C)[C@@](CC=C(C)C)(C(=O)C(C(=O)c3ccc(O)c(O)c3)=C1O)C2=O [Compound 1a, Garcinol, reference compound]	12	20	–	–	–
C=C(C)C(CC=C(C)C)CC12CC(CC=C(C)C)C(C)(C)C(CC=C(C)C)(C(=O)C(C(=O)c3ccc(OC(=O)CCC)c(OC(=O)CCC)c3)=C1O)C2=O (centres unmarked) [Compound 1b, 3′,4′-Di-(O-Butanoyl)-Garcinol]	–	–	8.9	better	–
C=C(C)C(CC=C(C)C)CC12CC(CC=C(C)C)C(C)(C)C(CC=C(C)C)(C(=O)C(C(=O)c3ccc(OCc4ccccc4[N+](=O)[O-])c(OCc4ccccc4[N+](=O)[O-])c3)=C1O)C2=O (centres unmarked) [Compound 1g, 3′,4′-di-[O-(2″-nitro-benzyl)]-garcinol]	–	–	6.8	–	> 100

Now from value to molecule, other results behind:

EC50 [1, 4] [nM]	IC50 at 48 h [2] [µM]	EC50 [1, 5] [nM]	SMILES	Pgp induction activity compared to parent natural product ([1]; LS180 cells)	IC50 at 48 h [3] [µM]
7	–	–	CC(C)=CC[C@H]1C[C@@]23C[C@@H](CC=C(C)C)C(C)(C)[C@@](CC=C(C)C)(C(=O)C(C(=O)c4ccc(O)c(O)c4)=C2OC1(C)C)C3=O [Compound 2a, Isogarcinol, reference compound]	–	11
–	–	2.9	CC(C)=CCOc1ccc(C(=O)C2=C3OC(C)(C)C(CC=C(C)C)CC34CC(CC=C(C)C)C(C)(C)C(CC=C(C)C)(C2=O)C4=O)cc1OCC=C(C)C (centres unmarked) [Compound 2b, 3′,4′-di-(O-prenyl)-isogarcinol]	better	40
